Assay results published in paper PMC6024615, “Effect of Biliary Drainage on the Toxicity and Toxicokinetics of Amanita exitialis in Beagles” (Toxins, 2018).
Read-outs that look alike come from different tables or passages of the source. Marks after values point to notes of the source that are not given here.

Columns and labels:
[1] = Peptide toxins in the blood / toxicokinetics in beagles with biliary drainage; assay type: in vivo, beagle dogs; parameters: Dose normalized AUC (0–∞) / Dose normalized Cmax: unit not given here; conditions: for T1/2 / AUC (0–∞) / CL/F / Cmax / Dose normalized AUC (0–∞) / Dose normalized Cmax / MRT (0–∞) / Tmax / Vd/F: biliary drainage, plasma, mean ± SD; for T1/2: UPLC-ESI-MS/MS; for Vd/F: male, beagle, dog, read-out: Vz/F
Procedure: The study was approved by National Institute of Occupational Health and Poison Control review board for animal experiments. Twenty-four male beagles (age, 8–10 months; weight, 10 ± 1 kg) were obtained from Beijing Institute of Xieerxin Biology Resource (Beijing, China). They were randomly divided into four groups of six animals each: control, biliary drainage, and 20 and 60 mg/kg with biliary drainage groups. The biliary drainage operation was conducted in all groups barring the control group. The dogs were dressed in homemade underwear, coats, and Elizabeth circles for a week to ensure pre-experimental acclimatization (Figure S8a–c). After determining the baseline values for biochemical indicators, the dogs were fasted for 24 h but received water ad libitum. They were anesthetized by intravenous administration of pentobarbital sodium (3%, 1 mL/kg) during the surgery. A temperature of 38–39 °C was maintained with a warming mat. After skin preservation and sterilization, the abdominal cavity was opened through the central abdomen. The abdomen was explored and blunt dissection of the common bile duct was performed (Figure S8d). The common bile duct and its branches were ligated from the intestinal side. A 7.0-Fr drainage catheter (COOK, Bloomington, IN, USA) was percutaneously inserted into the gallbladder, and a medical drainage bag was connected to the drainage catheter coming out of the abdominal cavity. Each opened layer, including the peritoneum, abdominal wall muscle, and skin, was closed with suture. The operative incision was protected with sterile gauze and a bandage, and the dogs were dressed in homemade underwear, coats, and Elizabeth circles. The drainage bag was placed in the pocket of the coat (Figure S8e). After the anesthetic wore off, the dogs were placed in cages, and food and water were provided ad libitum. The operative incision was sterilized with iodophor twice a day until stitches were removed six days after surgery. The drainage bag was replaced every day. On the eighth day after surgery, the 20 and 60 mg/kg with biliary drainage groups were orally administered a lyophilized powder of Amanita exitialis in starch capsules. In control and bile drainage group, the beagle dogs were fed with empty capsules. Immediately after dosing, the animals were placed in their cages, and food and water were provided ad libitum. Dogs were sacrificed with an overdose of sodium pentobarbital at the end of the experiment. All procedures were performed according to the ethical standards of the National Institutes of Health Guide for Animal Welfare and approved by the Institutional Animal Care and Use Committee (EAWE-2017-005).
Peptide toxins in blood and urine samples were analyzed as described previously. Bile samples from Days 0–1, Days 1–2, Days 2–3, and Days 3–4 were collected and stored in medical drainage bags and the bile volume was recorded. Plasma and urine samples were stored at 2–8 °C until analysis for peptide toxins.
UPLC and MS/MS parameters were as described in our previous study. The limit of detection and limit of quantitation of each toxin in the bile were 0.03 mg/kg and 0.5 mg/kg, respectively.
Toxicokinetic parameters were described in our previous study. Measurement data are reported as mean ± standard deviation values and enumeration data are reported as percentage (%). […] SPSS 22.0 (IBM Corporation, Armonk, NY, USA, 2015) was used for statistical analysis. The criterion for statistical significance was p ≤ 0.05. Except for the biliary drainage operation, the animals and methods in our present study are in accordance with our previously published study. Thus, by directly comparing the data from this study with those from our published studies on Amanita exitialis-exposed beagles without biliary drainage, we can evaluate the impact of biliary drainage on the toxicity and toxicokinetics of Amanita exitialis in beagles.

[2] = cited from earlier work
Procedure: The difference in detectable time in the urine can be explained by the low level of internal exposure (amatoxins in the blood). […] The daily amounts of peptide toxins excreted in urine in beagles without biliary drainage(mg). Time after α-Amanitin β-Amanitin Phallacidin ingestion 20 mg/kg 60 mg/kg 20 mg/kg 60 mg/kg 20 mg/kg 60 mg/kg group group group group group group 0-1d 0.0379 0.0593 0.0156 0.0251 0.0035 0.0088 (97.9%) (92.8%) (99.9%) (94.7%) (94.2%) (76%) 1-2d 0.0388 0.0618 0.01567 0.0255 0.0037 0.0110 (99.995%) (97.5%) (100%) (96.2%) (100%) (93%) 2-3d 0.0002 0.0626 0 0.0260 0 0.0115 (100%) (99.4%) (100%) (98.2%) (100%) (97.3%) 3-4d 0 0.063 ...

[3] = 20 mg/kg Amanita exitialis oral
[4] = 60 mg/kg Amanita exitialis oral

## CC[C@H](C)[C@@H]1NC(=O)CNC(=O)[C@@H]2Cc3c([nH]c4cc(O)ccc34)[S@+]([O-])C[C@H](NC(=O)CNC1=O)C(=O)N[C@@H](CC(=O)O)C(=O)N1C[C@H](O)C[C@H]1C(=O)N[C@@H]([C@@H](C)[C@@H](O)CO)C(=O)N2 [β-amanitin]
[1]; 0 h after ingestion, 20 mg/kg with biliary drainage group
  detection rate of peptide toxins in blood: 0%
[1]; 0 h after ingestion, 60 mg/kg with biliary drainage group
  detection rate of peptide toxins in blood: 0%
[1]; [3]
  T1/2: 1.29 ± 1.07 h
  AUC (0–∞): 3.24 ± 1.49 µg·h/L
  CL/F: 10.7 ± 7 mL/min/kg
  Cmax: 0.85 ± 0.33 µg/L
  Dose normalized AUC (0–∞): 179 ± 82.4
  Dose normalized Cmax: 57 ± 18.3
  MRT (0–∞): 3.83 ± 1.02 h
  Tmax: 1.63 ± 0.48 h
  Vd/F: 0.78 ± 0.63 L/kg
[1]; [4]
  T1/2: 1.54 ± 0.71 h
  AUC (0–∞): 15.75 ± 4.27 ^a,b µg/L × h
  CL/F: 5.5 ± 1.5 mL/min/kg
  Cmax: 5.18 ± 1.32 ^a,b µg/L
  Dose normalized AUC (0–∞): 222.3 ± 79.2
  Dose normalized Cmax: 96 ± 24.4
  MRT (0–∞): 3.89 ± 0.46 h
  Tmax: 1.25 ± 0.29 h
  Vd/F: 1.38 ± 0.59 L/kg
[1]; 0.25 h after ingestion, 20 mg/kg with biliary drainage group
  detection rate of peptide toxins in blood: 0%
[1]; 0.25 h after ingestion, 60 mg/kg with biliary drainage group
  detection rate of peptide toxins in blood: 50%
[1]; 0.5 h after ingestion, 20 mg/kg with biliary drainage group
  detection rate of peptide toxins in blood: 33%
[1]; 0.5 h after ingestion, 60 mg/kg with biliary drainage group
  detection rate of peptide toxins in blood: 66%
[1]; 1 h after ingestion, 20 mg/kg with biliary drainage group
  detection rate of peptide toxins in blood: 100%
[1]; 1 h after ingestion, 60 mg/kg with biliary drainage group
  detection rate of peptide toxins in blood: 100%
[1]; 1.5 h after ingestion, 20 mg/kg with biliary drainage group
  detection rate of peptide toxins in blood: 100%
[1]; 1.5 h after ingestion, 60 mg/kg with biliary drainage group
  detection rate of peptide toxins in blood: 100%
[1]; 2 h after ingestion, 20 mg/kg with biliary drainage group
  detection rate of peptide toxins in blood: 100%
[1]; 2 h after ingestion, 60 mg/kg with biliary drainage group
  detection rate of peptide toxins in blood: 100%
[1]; 3 h after ingestion, 20 mg/kg with biliary drainage group
  detection rate of peptide toxins in blood: 100%
[1]; 3 h after ingestion, 60 mg/kg with biliary drainage group
  detection rate of peptide toxins in blood: 100%
[1]; 4 h after ingestion, 20 mg/kg with biliary drainage group
  detection rate of peptide toxins in blood: 100%
[1]; 4 h after ingestion, 60 mg/kg with biliary drainage group
  detection rate of peptide toxins in blood: 100%
[1]; 5 h after ingestion, 20 mg/kg with biliary drainage group
  detection rate of peptide toxins in blood: 100%
[1]; 5 h after ingestion, 60 mg/kg with biliary drainage group
  detection rate of peptide toxins in blood: 100%
[1]; 6 h after ingestion, 20 mg/kg with biliary drainage group
  detection rate of peptide toxins in blood: 83%
[1]; 6 h after ingestion, 60 mg/kg with biliary drainage group
  detection rate of peptide toxins in blood: 100%
[1]; 8 h after ingestion, 20 mg/kg with biliary drainage group
  detection rate of peptide toxins in blood: 83%
[1]; 8 h after ingestion, 60 mg/kg with biliary drainage group
  detection rate of peptide toxins in blood: 100%
[1]; 10 h after ingestion, 20 mg/kg with biliary drainage group
  detection rate of peptide toxins in blood: 66%
[1]; 10 h after ingestion, 60 mg/kg with biliary drainage group
  detection rate of peptide toxins in blood: 100%
[1]; 12 h after ingestion, 20 mg/kg with biliary drainage group
  detection rate of peptide toxins in blood: 33%
[1]; 12 h after ingestion, 60 mg/kg with biliary drainage group
  detection rate of peptide toxins in blood: 100%
[1]; 24 h after ingestion, 20 mg/kg with biliary drainage group
  detection rate of peptide toxins in blood: 0%
[1]; 24 h after ingestion, 60 mg/kg with biliary drainage group
  detection rate of peptide toxins in blood: 33%
[1]; 36 h after ingestion, 20 mg/kg with biliary drainage group
  detection rate of peptide toxins in blood: 0%
[1]; 36 h after ingestion, 60 mg/kg with biliary drainage group
  detection rate of peptide toxins in blood: 0%
[1]; 48 h after ingestion, 20 mg/kg with biliary drainage group
  detection rate of peptide toxins in blood: 0%
[1]; 48 h after ingestion, 60 mg/kg with biliary drainage group
  detection rate of peptide toxins in blood: 0%
[1]; beagles with biliary drainage, oral Amanita exitialis
  time at which toxins were detected in plasma after ingestion: 30 min
[2]; 0-1d, 20 mg/kg group
  daily amount excreted in urine, without biliary drainage: 0.0156 mg
  percentage in parentheses, urine, without biliary drainage: 99.9%
[2]; 0-1d, 60 mg/kg group
  daily amount excreted in urine, without biliary drainage: 0.0251 mg
  percentage in parentheses, urine, without biliary drainage: 94.7%
[2]; 20 mg/kg group
  Accumulative amount excreted in urine, without biliary drainage: 0.0157 mg
  percentage in parentheses, Accumulative amount, urine, without biliary drainage: 100%
[2]; 20 mg/kg group, listed as β-Amanitin
  Accumulative amount excreted in urine, without biliary drainage: 0.01567 mg
[2]; 60 mg/kg group
  percentage in parentheses, Accumulative amount, urine, without biliary drainage: 100%
[2]; 1-2d, 20 mg/kg group
  percentage in parentheses, urine, without biliary drainage: 100%
[2]; 1-2d, 60 mg/kg group
  daily amount excreted in urine, without biliary drainage: 0.0255 mg
  percentage in parentheses, urine, without biliary drainage: 96.2%
[2]; 2-3d, 20 mg/kg group
  daily amount excreted in urine, without biliary drainage: 0 mg
  percentage in parentheses, urine, without biliary drainage: 100%
[2]; 2-3d, 60 mg/kg group
  daily amount excreted in urine, without biliary drainage: 0.0260 mg
  percentage in parentheses, urine, without biliary drainage: 98.2%
[2]; 3-4d, 20 mg/kg group
  daily amount excreted in urine, without biliary drainage: 0 mg
  percentage in parentheses, urine, without biliary drainage: 100%
[2]; 3-4d, 60 mg/kg group
  daily amount excreted in urine, without biliary drainage: 0.0264 mg
  percentage in parentheses, urine, without biliary drainage: 100%
